Measurements from patent US4308210A, “Nanaomycin B and therapeutic compositions containing same” (The Kitasato Institute, priority 1976, dated 1981).
Converted amounts (≈) assume the structure as drawn.

Key:
[1] = system: Staphylococcus aureus FDA 209P; assay: Antimicrobial spectrum, MIC, nutrient agar; assay type: cell-based; conditions: FDA209P, 48 h, nutrient agar (pH 7.0, 2 days, 37° C.)
Sarcina lutea PCI 1001 = assay: Antimicrobial spectrum, MIC, nutrient agar; assay type: cell-based; conditions: Micrococcus luteus, PCI1001, 48 h; nutrient agar (pH 7.0, 2 days, 37° C.)
Escherichia coli NIHJ = assay: Antimicrobial spectrum, MIC, nutrient agar; assay type: cell-based; conditions: 48 h, nutrient agar (pH 7.0, 2 days, 37° C.)
Method: (§1) Medium N nutrient agar (pH 7.0, 2 days, 37° C.)
(§2) MIC Minimal inhibitory concentration

[2] = system: Klebsiella pneumoniae PCI 602; assay: Antimicrobial spectrum, MIC, nutrient agar; assay type: cell-based; conditions: PCI602, 48 h, nutrient agar (pH 7.0, 2 days, 37° C.)
Method: as §1, §2

Mycobacterium smegmatis = assay: Antimicrobial spectrum, MIC, nutrient agar; assay type: cell-based; conditions: Mycolicibacterium smegmatis, 48 h; nutrient agar (pH 7.0, 2 days, 37° C.)
Method: as §1, §2

Salmonella typhimurium = assay: Antimicrobial spectrum, MIC, nutrient agar; assay type: cell-based; conditions: Salmonella enterica, 48 h, nutrient agar (pH 7.0, 2 days, 37° C.)
Method: as §1, §2

Shigella flexneri = assay: Antimicrobial spectrum, MIC, nutrient agar; assay type: cell-based; conditions: 48 h, nutrient agar (pH 7.0, 2 days, 37° C.)
Method: as §1, §2

[3] = system: Escherichia coli NIHJ (JC-2); assay: Antimicrobial spectrum, MIC, nutrient agar; assay type: cell-based; conditions: 48 h, nutrient agar (pH 7.0, 2 days, 37° C.)
[4] = system: Xanthomonas oryzae N-5824; assay: microbe, parasite or virus in culture; assay type: cell-based; conditions: N5824, 48 h, pH 7
Pseudomonas aeruginosa = assay: Antimicrobial spectrum, MIC, nutrient agar; assay type: cell-based; conditions: 48 h, nutrient agar (pH 7.0, 2 days, 37° C.)
Candida albicans [5] = assay: Antimicrobial spectrum, MIC, potato agar; assay type: cell-based; conditions: 96 h, potato agar (pH 6.4, 4 days, 27° C.)
[6] = system: Aspergillus niger ATCC 6275; assay: Antimicrobial spectrum, MIC, potato agar; assay type: cell-based; conditions: ATCC6275, 96 h, potato agar (pH 6.4, 4 days, 27° C.)
Method: (§3) P potato agar (pH 6.4, 4 days, 27° C.)
as §2

Microsporum gypseum 704 = assay: Antimicrobial spectrum, MIC, potato agar; assay type: cell-based; conditions: Nannizzia gypsea, 704, 96 h; potato agar (pH 6.4, 4 days, 27° C.)
Method: as §3, §2

Saccharomyces sake [7] = assay: Antimicrobial spectrum, MIC, potato agar; assay type: cell-based; conditions: 96 h, potato agar (pH 6.4, 4 days, 27° C.)
Method: as §3, §2

Piricularia oryzae = assay: microbe, parasite or virus in culture; assay type: cell-based; conditions: 96 h, pH 6.4
Trichophyton asteroides [8] = assay: Antimicrobial spectrum, MIC, potato agar; assay type: cell-based; conditions: 96 h, potato agar (pH 6.4, 4 days, 27° C.)
[9] = system: Trichophyton interdigitale; assay: Antimicrobial spectrum, MIC, potato agar; assay type: cell-based; conditions: 96 h, potato agar (pH 6.4, 4 days, 27° C.)
Trichophyton schoenleini [10] = assay: Antimicrobial spectrum, MIC, potato agar; assay type: cell-based; conditions: 96 h, potato agar (pH 6.4, 4 days, 27° C.)
Trichophyton violaceum = assay: Antimicrobial spectrum, MIC, potato agar; assay type: cell-based; conditions: 96 h, potato agar (pH 6.4, 4 days, 27° C.)
[11] = system: Acholeplasma laidlawii (B) Bml; assay: Antimicrobial spectrum, MIC, PPLO agar; assay type: cell-based; conditions: 192 h
Method: (§4) H Hokken PPLO agar (pH 7.8, 8 days, 37° C.)
E Eiken PPLO agar (pH 7.8, 8 days, 37° C.)
as §2

Mycoplasma gallinarum = assay: Antimicrobial spectrum, MIC, PPLO agar; assay type: cell-based; conditions: Mycoplasmopsis gallinarum, 192 h, Hokken PPLO agar (pH 7.8, 8 days, 37° C.)
Method: as §4, §2

Mycoplasma iners = assay: Antimicrobial spectrum, MIC, PPLO agar; assay type: cell-based; conditions: Mycoplasmopsis iners, 192 h; Hokken PPLO agar (pH 7.8, 8 days, 37° C.)
Method: as §4, §2

[12] = system: various fungi of some species belonging to the genus Trichophyton; assay: Growth inhibition of fungi of the genus Trichophyton (text summary of Table 1); assay type: cell-based
[13] = system: Tricophyton metagrophytes; assay: Treatment of dermatomycosis at the back of guinea pigs; assay type: in vivo; conditions: 0.01-1% solution in propylene glycol-ethanol (3:1, v/v), once daily for 8 days
Aspergillus fumigatus = assay: Antifungal activity, agar dilution method; assay type: cell-based; conditions: Aspergillus fumigatus, 96 h, potato agar, pH 6.4, 27° C., 4 days, read-out: Minimal Inhibitory Con.
Method: (§5) Minimal inhibitory concentration is assayed by agar dilution method
(§6) (potato agar, pH 6.4, 27° C., 4 days)

Candida albicans [14] = assay: Antifungal activity, agar dilution method; assay type: cell-based; conditions: Candida albicans, 96 h, potato agar, pH 6.4, 27° C., 4 days, read-out: Minimal Inhibitory Con.
Method: as §5, §6

Saccharomyces sake [15] = assay: Antifungal activity, agar dilution method; assay type: cell-based; conditions: Saccharomyces, 96 h, potato agar, pH 6.4, 27° C., 4 days, read-out: Minimal Inhibitory Con.
Method: as §5, §6

Trichophyton asteroides [16] = assay: Antifungal activity, agar dilution method; assay type: cell-based; conditions: Trichophyton, 96 h, potato agar, pH 6.4, 27° C., 4 days, read-out: Minimal Inhibitory Con.
Method: as §5, §6

[17] = system: Trichophyton interdigitale; assay: Antifungal activity, agar dilution method; assay type: cell-based; conditions: Trichophyton interdigitale, 96 h, potato agar, pH 6.4, 27° C., 4 days, read-out: Minimal Inhibitory Con.
Method: as §5, §6

Trichophyton rubrum = assay: Antifungal activity, agar dilution method; assay type: cell-based; conditions: Trichophyton rubrum, 96 h, potato agar, pH 6.4, 27° C., 4 days, read-out: Minimal Inhibitory Con.
Method: as §5, §6

Trichophyton schoenleini [18] = assay: Antifungal activity, agar dilution method; assay type: cell-based; conditions: Trichophyton, 96 h, potato agar, pH 6.4, 27° C., 4 days, read-out: Minimal Inhibitory Con.
Method: as §5, §6

mycoplasma = assay: Antimycoplasma activity, paper disc method; assay type: cell-based
Method: Inhibitory zone is assayed by paper disc method (Eiken PPLO agar, pH 7.8,

Acute toxicity, LD50 = conditions: in vivo, ip; intra-penetrial injection into mouse
Source text: Accordingly, it can be said that nanaomycin B represents a new antibiotic which may be used as a medicament for human beings and animals.

Solubility = assay type: physicochemical
[19] = Conversion of nanaomycin B into nanaomycin A in culture medium or living bodies

## CC1OC(CC(=O)O)CC2C(=O)c3cccc(O)c3C(=O)C12O (stereo not shown) [Nanaomycin B]
[1]
  MIC: 3.9 µg/mL (≈ 12.2 µM)
Sarcina lutea PCI 1001
  MIC: 2 µg/mL (≈ 6.24 µM)
Escherichia coli NIHJ
  MIC: 15.6 µg/mL (≈ 48.7 µM)
[2]
  MIC: 31.3 µg/mL (≈ 97.7 µM)
Mycobacterium smegmatis
  MIC: 125 µg/mL (≈ 390 µM)
Salmonella typhimurium
  MIC: 62.5 µg/mL (≈ 195 µM)
Shigella flexneri
  MIC: 62.5 µg/mL (≈ 195 µM)
[3]
  MIC: 500 µg/mL (≈ 1560 µM)
[4]
  MIC: 125 µg/mL (≈ 390 µM)
Pseudomonas aeruginosa
  MIC: > 500 µg/mL
Candida albicans [5]
  MIC: 31.2 µg/mL (≈ 97.4 µM)
[6]
  MIC: 62.5 µg/mL (≈ 195 µM)
Microsporum gypseum 704
  MIC: 12.5 µg/mL (≈ 39 µM)
Saccharomyces sake [7]
  MIC: 62.5 µg/mL (≈ 195 µM)
Piricularia oryzae
  MIC: 15.6 µg/mL (≈ 48.7 µM)
Trichophyton asteroides [8]
  MIC: 12.5 µg/mL (≈ 39 µM)
[9]
  MIC: 12.5 µg/mL (≈ 39 µM)
Trichophyton schoenleini [10]
  MIC: 3.1 µg/mL (≈ 9.68 µM)
Trichophyton violaceum
  MIC: 3.1 µg/mL (≈ 9.68 µM)
[11]; pH 7.8, Eiken PPLO agar (pH 7.8, 8 days, 37° C.)
  MIC: > 25 µg/mL
[11]; pH 7.8, Hokken PPLO agar (pH 7.8, 8 days, 37° C.)
  MIC: 25 µg/mL (≈ 78.1 µM)
Mycoplasma gallinarum
  MIC: 3.12 µg/mL (≈ 9.74 µM)
Mycoplasma iners
  MIC: 3.12 µg/mL (≈ 9.74 µM)
[12]; Trichophyton, 96 h, summary of Table 1, read-out: growth inhibited at a concentration
  MIC: ≤ 25 µg/mL
[12]; in words
  activity on trycophyton: active
[13]
  therapeutic effect on erythema and scales: excellent therapeutic effect
Aspergillus fumigatus
  MIC: 50 µg/mL (≈ 156 µM)
Candida albicans [14]
  MIC: > 100 µg/mL
Saccharomyces sake [15]
  MIC: > 100 µg/mL
Trichophyton asteroides [16]
  MIC: 12.5 µg/mL (≈ 39 µM)
[17]
  MIC: 12.5 µg/mL (≈ 39 µM)
Trichophyton rubrum
  MIC: 6.3 µg/mL (≈ 19.7 µM)
Trichophyton schoenleini [18]
  MIC: 0.4 µg/mL (≈ 1.25 µM)
mycoplasma; Mycoplasma, 24 h, 10 μg/ml, Eiken PPLO agar, pH 7.8, 37° C., 1 day, read-out: Inhibitory Zone
  zone of inhibition at 10 µg/mL: 22.7 mm
mycoplasma; Mycoplasma, 24 h, 100 μg/ml, Eiken PPLO agar, pH 7.8, 37° C., 1 day, read-out: Inhibitory Zone
  zone of inhibition at 100 µg/mL: 32.6 mm
mycoplasma; in words
  antimycoplasma activity compared with ethylkalafunginate and deoxyfrenolicin: superior
Acute toxicity, LD50
  LD50: 169 mg/kg
Solubility
  Solubility in methanol, ethanol, ethylacetate, chloroform, acetone and ether: Easily soluble
  Solubility in n-hexane, petroleum ether and water: Insoluble
[19]
  conversion into nanaomycin A in a culture medium or in living bodies: converted into nanaomycin A
